Reference: paper PMC4727756 (Journal of analytical & bioanalytical techniques, 2015)

Tests used:
in vitro = in vitro ADME
Description: Short-term stabilities were also determined for post-preparation QC standards stored at room temperature for 10 hours. The QC results obtained after storage were compared with spiked concentration values by determining the percentage ratios of experimental values divided by spiked values.

[1] = stability of stock and working solutions (LC-MS/MS); type: physicochemical; settings: stored at 4°C for at least 6 months
Description: The stabilities of stock and working solutions for both analyte and internal standard were also evaluated. Stock solutions of analyte and IS were stored at −20°C for 9 months.

| Structure (SMILES) | recovery at 8 h, 1.25 ng/mL (in vitro; rat plasma QC samples, rat plasma, bench top (8 hr) at room temp, 1.25 ng/ml) [%] | recovery at 8 h, 80 ng/mL (in vitro; rat plasma QC samples, rat plasma, bench top (8 hr) at room temp, 80.00 ng/ml) [%] | recovery at 3 days, 1.25 ng/mL (in vitro; rat plasma QC samples, rat plasma, freeze thaw (3 cycles), 1.25 ng/ml) [%] | recovery at 3 days, 80 ng/mL (in vitro; rat plasma QC samples, rat plasma, freeze thaw (3 cycles), 80.00 ng/ml) [%] | recovery at 10 h, 1.25 ng/mL (in vitro; rat, post-extraction (post-preparation) rat plasma QC samples, post extraction (10 hr) at room temp, 1.25 ng/ml) [%] | recovery at 10 h, 80 ng/mL (in vitro; rat, post-extraction (post-preparation) rat plasma QC samples, post extraction (10 hr) at room temp, 80.00 ng/ml) [%] | stability of working solutions ([1]; two QC standards (1.25 and 80 ng/mL)) | stability of working solutions ([1]; 7.5 ng/mL IS) [%] |
| --- | --- | --- | --- | --- | --- | --- | --- | --- |
| Cc1ccc(C)c(COc2cc(NC(=O)c3cc(C(F)(F)F)cc(C(F)(F)F)c3)ccc2N(C)S(C)(=O)=O)c1 [BMCL26] | 103 | 103 | 98.1 | 105 | 102 | 108 | 99.60–105.00% |  |
| Cc1ccc(C)c(COc2cc(NC(=O)C3CCCCC3)ccc2N(C)S(C)(=O)=O)c1 [JCC76, N-(3-(2,5-dimethylbenzyloxy)-4-(methylmethylsulfonamido)phenyl)cyclohexanecaboxamide, reference compound] |  |  |  |  |  |  |  | 115.60 |
